Results as given in patent US11273148B2, “Targeted epigenetic therapy for inherited aortic aneurysm condition” (The Johns Hopkins University, priority 2017, dated 2022).
“Also recorded” adds a separate entry of the source.

Legend:
TGFβ target genes = experiment: qPCR of TGFβ target genes in mouse aorta; format: in vivo; conditions: C646 treated vs DMSO treated VSMC/Ski G34D/+ mice
Text: For quantitative RT-PCR and chromatin immunoprecipitation, mice aortic root and ascending aorta (above aortic root to the origin of right brachiocephalic trunk) harvested separately, snap-frozen in liquid nitrogen and stored at minus 80 degrees Celsius until processed. For RNA extraction, Aortas were homogenized in Trizol (ThermoFisher) by FastPrep-24 (MP Biomedicals, LLC.), as per the manufacturer's manual. After homogenization, RNA was extracted by RNeasy mini kit (QIAGEN), as per the manufacturer's manual. RNA samples were then stored once more at minus 80 degrees until quantitative RT-PCR experiment was performed.
C646 (Selleckchem, #S7152) was reconstituted in 10% DMSO (Sigma) dissolved in PBS, and administered daily by intraperitoneal (IP) injection at dose of 5 mg/kg/day. Treatment was initiated at 8 weeks of age and continued for 12 weeks. […]
Total RNA was isolated from mouse aortas or cultured cells by RNeasy mini kit (QIAGEN), as per the manufacturer's manual. Quantitative PCR was performed in triplicate with TaqMan Universal PCR Master Mix using an ABI Prism 7900 HT QPCR machine (all from Applied Biosystems), as per the manufacturer's manual. […] Reactions were run in triplicate, and relative quantification for each transcript was obtained by normalizing against housekeeping control transcript such as β-ACTIN (ACTB) according to the formula 2^−Ct/2^−Ct(ACTB).

SGS patient fibroblasts = experiment: qPCR of TGFβ target genes in TGFβ1-stimulated primary human dermal fibroblasts; format: cell-based; conditions: for Expression level of COL3A1 and FN1 relative to β-actin / Expression level of SKI and SMAD7 relative to β-actin: control and SGS patient fibroblasts, vs vehicle treated
Description: Primary human dermal fibroblasts were derived from forearm skin biopsies of two controls and two patients with Shprintzen-Goldberg syndrome from previously described. The fibroblasts were cultured in Dulbecco's modified eagle medium (DMEM) with 10% fetal bovine serum (FBS) in the presence of antibiotics and passaged confluence. According to previously described protocols with slight modifications (2), all cell culture experiments were conducted in serum-starved media for 24 hours prior to drug treatment. Stimulation was performed using 10 ng/ml recombinant human TGFβ1 (R&D system). […] Cells were collected at baseline, 6 hours after TGFβ1 stimulation. RNA was extracted from the cells using Trizol (ThermoFisher) by RNeasy mini kit (QIAGEN), as per the manufacturer's manual.
Total RNA was isolated from mouse aortas or cultured cells by RNeasy mini kit (QIAGEN), as per the manufacturer's manual. Quantitative PCR was performed in triplicate with TaqMan Universal PCR Master Mix using an ABI Prism 7900 HT QPCR machine (all from Applied Biosystems), as per the manufacturer's manual. The following prevalidated TaqMan probes were used to detect specific transcripts: Mm00801666_g1 (Collal), Mm01254476_m1 (Col3A1), Mm01256744_m1 (Fn1), Mm04205640_g1 (Cdkn1a), Mm01192932_g1 (Ctgf), and Mm00435860_m1 (Serpine1), Mm00448744_m1 (Ski), Mm00456917_m1 (Skil), Mm00484742_m1 (Smad7) and Mm00607939_s1 (Actb) (Life Technologies). For human samples, the following probes were used: Hs00943809_m1 (COL3A1), Hs00365052_m1 (FN1), Hs00161707_m1 (SKI), Hs01045418_m1 (SKIL) and Hs01060665_g1 (ACTB). Reactions were run in triplicate, and relative quantification for each transcript was obtained by normalizing against housekeeping control transcript such as β-ACTIN (ACTB) according to the formula 2^−Ct/2^−Ct(ACTB).

VSMC/Ski G34D/+ mice [1] = experiment: Aortic root histology (VVG and Masson-trichrome staining): wall thickness, elastin fiber disruptions; format: in vivo, mouse; conditions: for Final absolute aortic wall thickness / Final number of disruptions in elastin fiber architecture: C646 5 mg/kg/day IP, 12 weeks, aortic root sections, +/−SEM
Description: According to a previously described protocol with slight modification (1), mice that were analyzed for aortic histology had latex infused into the left ventricle through descending abdominal aorta. Mice were then fixed for 24 hours in 10% neutral buffered formalin and then switched into 70% ethanol until histological analysis was performed.
(§1) C646 (Selleckchem, #S7152) was reconstituted in 10% DMSO (Sigma) dissolved in PBS, and administered daily by intraperitoneal (IP) injection at dose of 5 mg/kg/day. Treatment was initiated at 8 weeks of age and continued for 12 weeks. 10% DMSO in PBS was administered as a control.
According to previously described protocols with slight modifications (1), latex-infused heart and aorta were removed from body and transected just below the level of the aortic annulus, and just above aortic root, and 2-3 mm transverse sections were mounted in 4% agar prior to paraffin fixation. Five micron aortic sections underwent Verhoeff-van Giesen (VVG) and Masson's Trichrome staining, and were imaged 40× magnification, using a Nikon Eclipse E400 microscope. Aortic wall thickness was measured of four sites of four representative sections for each mouse and the disruptions of elastin fiber architecture were counted in four sections every 25 micron from aortic annulus. All analyses were performed blinded to genotype and treatment arm and the results were averaged.

[2] = tested on: histone 3 lysine 27 acetylation (H3K27ac); experiment: Immunofluorescent detection of H3K27ac in aortic roots; format: in vivo, mouse; conditions: VSMC/Ski G34D/+ mice, C646 5mg/kg/day vs DMSO-treated
Description: For aorta frozen section, harvested aorta with heart was fixed in fresh 4% paraformaldehyde in PBS at 4 degree overnight and then placed in cold 30% sucrose in PBS solution and incubated at 4 degree overnight again. Tissue was then embedded in Tissue-Tek O.C.T compound ad snap-frozen in liquid nitrogen and stored at minus 80 degree until processed.
as §1
Immunofluorescence staining was performed as previous described (3). Frozen 10 μm long-axis view sections were obtained with a cryostat and mounted on glass slides. Sections were dried for at room temperature for overnight prior to staining. Sections were permeabilized in staining buffer (PBS containing 0.1% Triton-X 100) for 30 minutes and then incubated with Fc Receptor Block from Innovex for 30 minutes at room temperature, washed briefly in staining buffer, and then incubated again in blocking solution (0.1% Triton-X 100, 1:50 goat serum, 0.3M glycine) for 30 minutes. […]

VSMC/Ski G34D/+ mice [3] = experiment: Aortic root diameter and growth by echocardiography in C646-treated mice; format: in vivo, mouse; conditions: for Final absolute aortic root diameter: C646 5 mg/kg/day IP from 8 weeks of age; for Final absolute aortic root diameter / Final absolute aortic root growth rate: 12 weeks of treatment, +/−SEM; for Final absolute aortic root growth rate: C646 5 mg/kg/day IP
Description: as §1
Nair hair removal cream was used to remove fur from the anterior thorax of the mice the day prior to echocardiography. According to previously described with slight modifications (1), all echocardiography were performed on mice that were awake and unsedated with the use of the Vevo 2100 imaging system and 40 MHz transducer (Visualsonics). Mice were imaged at 8 weeks of age as a baseline and every 4 weeks thereafter, until 20 weeks of age. Mice aorta were imaged in the parasternal long-axis view. Three separate measurements of the maximal internal dimension at the sinus of Valsalva during systole were made in separate cardiac cycles and averaged. All imaging and analysis was performed blinded to genotype and treatment arm.

[4] = C646 2004 for 24 hours pre-treated before TGFβ1 stimulation
[5] = C646 2004 for 24 hours pre-treated before TGFβ1 stimulation (10 ng/ml for 6 hours)
[6] = SD208 10 μM for 1 hour pre-treated before TGFβ1 stimulation (10 ng/ml for 6 hours)

CC1=NN(c2ccc(C(=O)O)cc2)C(=O)C1=Cc1ccc(-c2cc(C)c(C)cc2[N+](=O)[O-])o1 (stereo in doubt) [C646, 4-[(4Z)-4-[[5-(4,5-dimethyl-2-nitrophenyl)furan-2-yl]methylidene]-3-methyl-5-oxopyrazol-1-yl]benzoic acid]
Expression levels of TGFβ target genes relative to β-actin in aorta (TGFβ target genes): decreased expression levels of TGFβ target genes except COL1A1, SKI and SKIL; also recorded: normalizes gene expression in the aorta; also recorded: normalization of the TSR | Difference of COL3A1 and FN1 expression level between C646 treated SGS patient fibroblast and vehicle treated control fibroblasts (SGS patient fibroblasts; [4]): no significant difference | Difference of SKI expression level between C646 treated SGS patient fibroblast and vehicle treated control fibroblast (SGS patient fibroblasts; [4]): no significant difference | TGFβ target gene expression in SGS patient fibroblasts (SGS patient fibroblasts; comparable efficiency of a TGFβ type I receptor (Alk5) kinase inhibitor): normalized TGFβ target gene expression | Expression level of COL3A1 and FN1 relative to β-actin (SGS patient fibroblasts; [5]): significantly decreased expression level | Expression level of SKI and SMAD7 relative to β-actin (SGS patient fibroblasts; [5]): significantly decreased expression level | Aortic wall architecture: medial thickening, elastic fiber fragmentation, collagen deposition (in words) (VSMC/Ski G34D/+ mice [1]; C646 treated vs DMSO treated VSMC/Ski G34D/+ mice, VVG and Masson-trichrome staining): reduced medial thickening and elastic fiber fragmentation and the recovered collagen deposition; also recorded: preserves aortic wall architecture; also recorded: preservation of aortic wall architecture | Final absolute aortic wall thickness (VSMC/Ski G34D/+ mice [1]; Control mice): 58.547+/−1.415 μm | Final number of disruptions in elastin fiber architecture (VSMC/Ski G34D/+ mice [1]; Control mice): 1+/−0.577 | Final absolute aortic wall thickness (VSMC/Ski G34D/+ mice [1]; VSMC/Ski G34D/+ mice): 63.438+/−1.818 μm | Final number of disruptions in elastin fiber architecture (VSMC/Ski G34D/+ mice [1]; VSMC/Ski G34D/+ mice): 6+/−1.155 | H3K27 acetylation in aortic root [2]: decreased H3K27 acetylation; also recorded: prevention of excessive Histone 3 Lysine 27 (H3K27) acetylation | Aortic root diameter (in words) (VSMC/Ski G34D/+ mice [3]; C646 treated vs DMSO treated VSMC/Ski G34D/+ mice, echocardiogram): normalized aortic root diameter; also recorded: rescued aortic root diameter | Final absolute aortic root diameter (VSMC/Ski G34D/+ mice [3]; Control mice, echocardiogram): 1.686+/−0.024 mm | Final absolute aortic root growth rate (VSMC/Ski G34D/+ mice [3]; Control mice): 0.067+/−0.023 mm/12 weeks | Final absolute aortic root diameter (VSMC/Ski G34D/+ mice [3]; VSMC/Ski G34D/+ mice, echocardiogram): 1.848+/−0.045 mm | Final absolute aortic root growth rate (VSMC/Ski G34D/+ mice [3]; VSMC/Ski G34D/+ mice): 0.119+/−0.042 mm/12 weeks | Aneurysm progression (VSMC/Ski G34D/+ mice [3]; systemically-administered C646 in Ski VSMC:G34D/+ mice): abrogates aneurysm progression; also recorded: prevented aneurysm progression

Fc1ccc(Cl)cc1-c1nc(Nc2ccncc2)c2nccnc2n1 [SD208]
Expression level of COL3A1 and FN1 relative to β-actin (SGS patient fibroblasts; [6]): significantly decreased expression level | Expression level of SKI and SMAD7 relative to β-actin (SGS patient fibroblasts; [6]): significantly decreased expression level
